Data from publication PMC7534374 (Journal of Enzyme Inhibition and Medicinal Chemistry, 2020).

Key:
[1] = target: T1, human glutathione reductase (hGR) (Homo sapiens, UniProt P00390); assay: GR activity assay; assay type: biochemical
T1 sequence (P00390 44-522): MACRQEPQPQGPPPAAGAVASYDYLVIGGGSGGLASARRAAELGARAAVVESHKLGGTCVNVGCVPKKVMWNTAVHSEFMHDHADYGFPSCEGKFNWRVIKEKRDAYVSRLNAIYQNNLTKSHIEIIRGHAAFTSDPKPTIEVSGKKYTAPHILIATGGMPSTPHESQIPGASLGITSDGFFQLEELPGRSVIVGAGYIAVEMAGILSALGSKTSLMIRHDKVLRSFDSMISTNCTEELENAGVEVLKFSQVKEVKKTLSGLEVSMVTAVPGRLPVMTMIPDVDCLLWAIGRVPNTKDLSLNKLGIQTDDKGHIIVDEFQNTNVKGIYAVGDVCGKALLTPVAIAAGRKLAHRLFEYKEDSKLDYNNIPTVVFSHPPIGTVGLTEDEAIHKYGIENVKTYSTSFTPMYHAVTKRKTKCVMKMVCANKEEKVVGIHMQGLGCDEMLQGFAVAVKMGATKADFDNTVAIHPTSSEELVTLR

[2] = target: T2, yeast glutathione reductase (yGR) (Saccharomyces cerevisiae, UniProt P41921); assay: LC-MS/MS of covalent adduct; assay type: biochemical; conditions: read-out: Ki
T2 sequence (P41921 1-483): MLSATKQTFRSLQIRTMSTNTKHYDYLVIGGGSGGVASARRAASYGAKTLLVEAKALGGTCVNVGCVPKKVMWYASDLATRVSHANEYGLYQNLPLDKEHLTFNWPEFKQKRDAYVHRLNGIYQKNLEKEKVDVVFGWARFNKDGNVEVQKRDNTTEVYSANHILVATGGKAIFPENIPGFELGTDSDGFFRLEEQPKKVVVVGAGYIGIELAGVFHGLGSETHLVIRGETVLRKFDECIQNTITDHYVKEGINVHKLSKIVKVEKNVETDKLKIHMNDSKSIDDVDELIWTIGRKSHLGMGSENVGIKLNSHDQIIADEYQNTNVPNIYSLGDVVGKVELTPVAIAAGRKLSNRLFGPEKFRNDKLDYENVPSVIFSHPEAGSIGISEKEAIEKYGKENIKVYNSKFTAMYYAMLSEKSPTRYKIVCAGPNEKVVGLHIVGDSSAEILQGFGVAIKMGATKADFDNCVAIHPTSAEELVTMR

Row | Compound | GR activity assay (NADPH consumption at 340 nm) [1] | KI (inactivation) [2]
1 | S=C=NCCc1ccccc1 [PEITC, Phenethyl isothiocyanate] | both of BITC and PEITC inhibited yeast or human GR in a concentration-dependent manner | –
2 | S=C=NCc1ccccc1 [BITC, Benzyl isothiocyanate] | BITC exerted comparable inhibitory effect against both of yeast and human GRs | 260 µM
